This note sets out measurements from US4087528A, “2,4-Diamino-5-benzylpyrimidines” (Abbott Laboratories, priority 1976, dated 1978).

For one assay, the system named is E. Coli 114 Sensitive. Put plainly: Two-fold tube dilution test vs. trimethoprim-sensitive E. coli (Table 4). The class given is cell-based. Conditions: Escherichia coli, minimal medium, 37° C., 18 hours, read-out: Minimum Inhibitory Concentration. The protocol:
(§1) Compounds V - VIII were tested and compared with trimethoprim, as control, against two external strains, (Escherichia coli) a sensitive No. 114 and a No. 114 carrying a resistant (R) factor which mediates the synthesis of an altered dihydrofolate reductase; S. G. R. Amyes and J. T. Smith, Biochem. and Biophys., Res. Comm., 58, 412 (1974).
(§2) The method used was a two-fold tube dilution test in 5 ml. amounts of minimal medium. The inoculum was 0.1 ml. of a 1:1T dilution of a 24 hour broth culture. The test was incubated at 37° C. for 18 hours.

For the next assay, the system named is E. Coli (Resistant). Put plainly: microbe, parasite or virus in culture. It counts as cell-based, Escherichia coli. The following applies: for MIC: Escherichia coli, 18 h, read-out: Minimum Inhibitory Concentration. The protocol: as §1, §2
The test system of the next assay is Escherichia coli Juhl. As to the kind of experiment: Two-fold tube dilution test, minimal medium (Table 2). It counts as cell-based. The following applies: 37° C., 18 hours, read-out: Minimum Inhibitory Concentration. The protocol:
(§3) The four compounds, i.e., compounds V, VI, VII, VIII, were tested against a series of strains including:
(§4) Escherichia coli Juhl and Escherichia coli 3100. The method used was a two-fold tube dilution test in 5 ml. amounts of minimal medium. The inoculum was 0.1 ml. of a 1:1T dilution of a 24 hour broth culture. The test was incubated at 37° C. for 18 hours.

Assay [1] concerns Enterobacter aerogenes 13048. The description is as above. The class given is cell-based. The following applies: Klebsiella aerogenes, 37° C., 18 hours, read-out: Minimum Inhibitory Concentration. The protocol: as §3, §4
Assay [2] relates to Proteus mirabilis Finland #9. The assay is described as above. It counts as cell-based. The following applies: 37° C., 18 hours, read-out: Minimum Inhibitory Concentration. The protocol:
as §3, §4

The subject of assay [3] is Salmonella typhimurium Ed 9. The assay is described as above. The class given is cell-based. The following applies: Salmonella enterica, 37° C., 18 hours, read-out: Minimum Inhibitory Concentration. The protocol: as §3, §4
For the next assay, the system named is Escherichia coli 3100. The description is as above. The following applies: 37° C., 18 hours, read-out: Minimum Inhibitory Concentration. It counts as cell-based. The protocol:
as §3, §4

For assay [4], the system named is Klebsiella pneumoniae 8045. The description is as above. It counts as cell-based. Conditions: 37° C., 18 hours, read-out: Minimum Inhibitory Concentration. The protocol: as §3, §4
The test system of assay [5] is Streptococcus pyogenes C203. Put plainly: Tube dilution test, Mueller Hinton Medium (Table 3). It counts as cell-based. Conditions: 18 h, read-out: Minimum Inhibitory Concentration. The method, then:
(§5) Escherichia coli Juhl and Escherichia coli 3100. The method used was a two-fold tube dilution test in 5 ml. amounts of minimal medium. The inoculum was 0.1 ml. of a 1:1T dilution of a 24 hour broth culture. The test was incubated at 37° C. for 18 hours. A similar test was made on other strains with the compounds (V, VI, VII and VIII) in 5 ml. amounts of Mueller Hinton Medium.

In assay [6] the test system is Staphylococcus aureus Smith. The description is as above. It counts as cell-based. Conditions: 18 h, read-out: Minimum Inhibitory Concentration. The method, then:
as §5

In assay [7] the test system is Staphylococcus aureus 209P. Described as above. It counts as cell-based. Conditions: 18 h, read-out: Minimum Inhibitory Concentration. The method, then: as §5
A further assay relates to E. Coli (Juhl). As to the kind of experiment: Acute Mouse Protection Test (Table 6). It counts as in vivo, Female, Swiss albino mice. Conditions: approximate, combination with sulfamethoxazole, medicated 1 and 5 hours post-infection, 7 days. The method, then:
(§6) The test bacteria were transferred to Brain Heart Infusion Broth and incubated at 37° C. for 18 hours. Log dilutions of the organism were made in BHI broth and mixed with 3% hog gastric mucin.
(§7) Female, Swiss albino mice, 18 - 20 grams, were injected intraperitoneally with 0.75 ml. of inoculum.
(§8) The optimum dilution was one in which each mouse received 10 - 10 LD50 's of the infecting organism.
(§9) The test compound was diluted in such a way that there were 5 drug levels (each level is half as concentrated as the one above) in each test. Ten infected mice were treated with each level of drug. The mice were medicated 1 and 5 hours post-infection.

Another assay concerns P. Mirabilis. As to the kind of experiment: Acute Mouse Protection Test (Table 6). The class given is in vivo, Female, Swiss albino mice. Conditions: approximate, combination with sulfamethoxazole, medicated 1 and 5 hours post-infection, 7 days. The protocol: as §6, §7, §8, §9
A further assay has as its system P. Vulgaris. As to the kind of experiment: Acute Mouse Protection Test (Table 6). The following applies: approximate, combination with sulfamethoxazole, medicated 1 and 5 hours post-infection, 7 days. It counts as in vivo, Female, Swiss albino mice. The method, then: as §6, §7, §8, §9
Another assay has as its system E. Coli (48). As to the kind of experiment: Acute Mouse Protection Test (Table 6). Conditions: approximate, combination with sulfamethoxazole, medicated 1 and 5 hours post-infection, 7 days. It counts as in vivo, Female, Swiss albino mice. The method, then: as §6, §7, §8, §9
The next assay concerns E. Coli 3100. As to the kind of experiment: In vitro potentiation of sulfonamides, two-fold tube dilution test in BBL Nutrient broth (Table 5). The class given is cell-based, Escherichia Coli. Conditions: MIC of sulfonamide alone vs in combination. The method, then:
The potentiation properties of the compounds, i.e., compounds V - VIII in various combinations with sulfa compounds, i.e., sulfonamides (sulfamethoxazole, sulfadiazine, sulfamethazine and sulfamerazine) were tested. The method was a two-fold tube dilution test using BBL Nutrient broth in 5 ml. amounts. The inoculum was 0.1 ml. of a 10^-3 dilution 24 hour broth culture of Escherichia Coli 3100. The test was incubated at 37° C. for 18 hours. | *The potentiation effect shown is determined by measuring the minimum | inhibitory concentration (MIC) of the sulfonamide alone and in combinatio | with the compound at the indicated ratios.

Setting [8] is: Sulfadiazine, Compound/Sulfa Ratio 1:1.
[9] abbreviates: Sulfadiazine, Compound/Sulfa Ratio 1:5.

SMILES strings stand for the structures. Converted amounts (≈) assume the structure as drawn.

On to `COc1cc(Cc2cnc(N)nc2N)cc(OC)c1OC` [Trimethoprim, reference compound], for which the MIC in the assay with E. Coli 114 Sensitive stood at 0.2 µg/mL (≈ 0.689 µM); in the assay on E. Coli (Resistant), 3000 µg/mL (≈ 10300 µM). Also, in the assay on E. Coli (Resistant) (R factor in E. Coli 114 versus sensitive), the “increase in resistance caused by the resistant (R) factor” value is on record as “several thousand-fold”.

Take `CN(C)c1c(Cl)cc(Cc2cnc(N)nc2N)cc1Cl` [VIII, 2,4-Diamino-5-(3,5-dichloro-4-dimethylaminobenzyl)pyrimidine]: the MIC came to 6.2 µg/mL (≈ 19.9 µM) in the assay on Escherichia coli Juhl; 3.1 µg/mL (≈ 9.93 µM) in assay [1]; 25 µg/mL (≈ 80.1 µM) in assay [2]; 6.2 µg/mL (≈ 19.9 µM) in assay [3]; 6.2 µg/mL (≈ 19.9 µM) in the assay with Escherichia coli 3100; 6.2 µg/mL (≈ 19.9 µM) in assay [4]. For the same molecule, the MIC turned out to be 6.2 µg/mL (≈ 19.9 µM) in the assay with E. Coli 114 Sensitive; 3.1 µg/mL (≈ 9.93 µM) in [5]; 3.1 µg/mL (≈ 9.93 µM) in [6]; 1.56 µg/mL (≈ 5 µM) in [7]; 100 µg/mL (≈ 320 µM) with E. Coli (Resistant). The “CD50, Cmpd. part of the Sulfa/Cmpd. combination” value in the assay on E. Coli (Juhl) came out at 45 Mg./Kg; in the assay on P. Mirabilis, 80 Mg./Kg; in the assay with P. Vulgaris, 2 Mg./Kg; in the assay with E. Coli (48), 3 Mg./Kg. For the same molecule, the Potentiation with E. Coli 3100 (setting [8]) came to 8.0 X; in the assay with E. Coli 3100 (setting [9]), 1.6 X.

`Nc1ncc(Cc2cc(Cl)c(N)c(Cl)c2)c(N)n1` [V, 2,4-Diamino-5-(4-amino-3,5-dichlorobenzyl)pyrimidine]: the MIC was found to be 0.78 µg/mL (≈ 2.75 µM) in the assay on Escherichia coli Juhl; 1.56 µg/mL (≈ 5.49 µM) in assay [1]; 25 µg/mL (≈ 88 µM) in assay [2]; 3.1 µg/mL (≈ 10.9 µM) in [3]; 0.39 µg/mL (≈ 1.37 µM) in the assay on Escherichia coli 3100; 1.56 µg/mL (≈ 5.49 µM) in assay [4]. The MIC with E. Coli 114 Sensitive is 1.56 µg/mL (≈ 5.49 µM); in assay [5], 6.2 µg/mL (≈ 21.8 µM); in [6], 25 µg/mL (≈ 88 µM); in assay [7] it was 6.2 µg/mL (≈ 21.8 µM); with E. Coli (Resistant), 400 µg/mL (≈ 1410 µM). For the same molecule, the “CD50, Cmpd. part of the Sulfa/Cmpd. combination” value with E. Coli (Juhl) came out at 45 Mg./Kg; in the assay with P. Mirabilis, 30 Mg./Kg. The Potentiation in the assay on E. Coli 3100 (setting [8]) turned out to be 31.0 X; in the assay with E. Coli 3100 (setting [9]), 3.1 X.

For the molecule `CNc1c(Cl)cc(Cc2cnc(N)nc2N)cc1Cl` [VI, 2,4-Diamino-5-(3,5-dichloro-4-methylaminobenzyl)pyrimidine], the MIC with Escherichia coli Juhl is 6.2 µg/mL (≈ 20.8 µM); in [1] it was 3.1 µg/mL (≈ 10.4 µM); in [2], 12.5 µg/mL (≈ 41.9 µM); in assay [3], 3.1 µg/mL (≈ 10.4 µM); in the assay with Escherichia coli 3100, 3.1 µg/mL (≈ 10.4 µM); in assay [4], 6.2 µg/mL (≈ 20.8 µM). For the same molecule, the MIC in the assay on E. Coli 114 Sensitive was 1.56 µg/mL (≈ 5.23 µM); in [5], 6.2 µg/mL (≈ 20.8 µM); in assay [6] it was 6.2 µg/mL (≈ 20.8 µM); in assay [7] it was 3.1 µg/mL (≈ 10.4 µM); in the assay on E. Coli (Resistant), > 400 µg/mL. In addition, the “CD50, Cmpd. part of the Sulfa/Cmpd. combination” value with E. Coli (Juhl) worked out at 30 Mg./Kg; in the assay on P. Mirabilis, 60 Mg./Kg; in the assay with P. Vulgaris, 2 Mg./Kg; with E. Coli (48), 3 Mg./Kg. For the same molecule, the Potentiation in the assay on E. Coli 3100 (setting [8]) amounted to 15.9 X; with E. Coli 3100 (setting [9]) it was 3.1 X.

As for `CCNc1c(Cl)cc(Cc2cnc(N)nc2N)cc1Cl` [VII, 2,4-Diamino-5-(3,5-dichloro-4-ethylaminobenzyl)pyrimidine], the MIC worked out at 3.1 µg/mL (≈ 9.93 µM) in the assay on Escherichia coli Juhl; 25 µg/mL (≈ 80.1 µM) in assay [1]; 50 µg/mL (≈ 160 µM) in assay [2]; 12.5 µg/mL (≈ 40 µM) in [3]; 6.2 µg/mL (≈ 19.9 µM) in the assay with Escherichia coli 3100; 12.5 µg/mL (≈ 40 µM) in [4]. In addition, the MIC in the assay with E. Coli 114 Sensitive turned out to be 3.1 µg/mL (≈ 9.93 µM); in assay [5] it was 12.5 µg/mL (≈ 40 µM); in [6], 6.2 µg/mL (≈ 19.9 µM); in assay [7], 3.1 µg/mL (≈ 9.93 µM); in the assay on E. Coli (Resistant) it was 200 µg/mL (≈ 641 µM). For the same molecule, the “CD50, Cmpd. part of the Sulfa/Cmpd. combination” value turned out to be 35 Mg./Kg in the assay on E. Coli (Juhl), 30 Mg./Kg in the assay with P. Mirabilis, 2 Mg./Kg in the assay on P. Vulgaris and 2 Mg./Kg with E. Coli (48). The Potentiation with E. Coli 3100 (setting [8]) is reported as 8.0 X; with E. Coli 3100 (setting [9]) it was 6.2 X; with E. Coli 3100 (Sulfamerazine, Compound/Sulfa Ratio 1:1), 8.0 X; with E. Coli 3100 (Sulfamerazine, Compound/Sulfa Ratio 1:5), 3.2 X; with E. Coli 3100 (Sulfamethazine, Compound/Sulfa Ratio 1:1) it was 4.0 X; in the assay with E. Coli 3100 (Sulfamethazine, Compound/Sulfa Ratio 1:5), 3.2 X. Also, the Potentiation with E. Coli 3100 (Sulfamethoxazole, Compound/Sulfa Ratio 1:1) was 4.0 X; with E. Coli 3100 (Sulfamethoxazole, Compound/Sulfa Ratio 1:5), 3.1 X.
